According to patent US11248234B2, “Herbicide-resistant hydroxyphenylpyruvate dioxygenases” (BASF SE, priority 2015, dated 2022):
Entries after “also recorded” stand apart in the source; their conditions may differ.

Legend:
Test in all cases: In vitro HPPD activity assay
SoHPPD Q317H = assay type: biochemical, Scenedesmus obliquus; conditions: normalized on Arabidopsis wild-type HPPD (SEQ ID NO:42)
Protocol: (§1) HPPD produces homogentisic acid and CO2 from 4-hydroxyphenylpyruvate (4-HPP) and O2. The activity assay for HPPD is based on the analysis of homogentisic acid by reversed phase HPLC.
(§2) The assay mixture can contain 150 mM potassium phosphate buffer pH 7.0, 50 mM L-ascorbic acid, 100 μM Catalase (Sigma-Aldrich), 1 μM FeSO4 and 0.2 units of purified mutated HPPD enzyme in a total volume of 505 μl. 1 unit is defined as the amount of enzyme that is required to produce 1 nmol of HGA per minute at 20° C.
(§3) After a preincubation of 30 min the reaction is started by adding 4-HPP to a final concentration of 0.05 mM. The reaction is allowed to proceed for 45 min at room temperature. The reaction is stopped by the addition of 50 μl of 4.5 M phosphoric acid. The sample is filtered using a […] pore size PVDF filtration device.
(§4) 5 μl of the cleared sample is analyzed on an UPLC HSS T3 column (particle size 1.8 μm, dimensions 2.1×50 mm; Waters) by isocratic elution using 90% 20 mM NaH2PO4 pH 2.2, 10% methanol (v/v).
(§5) HGA is detected electrochemically at 750 mV (mode: DC; polarity: positive) and quantified by integrating peak areas (Empower software; Waters).
(§6) Inhibitors are dissolved in DMSO (dimethylsulfoxide) to a concentration of 0.5 mM. From this stock solution serial five-fold dilutions are prepared in DMSO, which are used in the assay. The respective inhibitor solution accounts for 1% of the assay volume. Thus, final inhibitor concentrations range from 5 μM to 320 pM, respectively. Activities are normalized by setting the uninhibited enzyme activity to 100%. IC50 values are calculated using non-linear regression.
(§7) Using methods which are described in the above examples or well known in the art, purified, recombinant mutated HPPD enzymes are characterized with respect to their kinetic properties and sensitivity towards HPPD inhibiting herbicides. Apparent michaelis constants (Km) and maximal reaction velocities (Vmax) are calculated by non-linear regression with the software GraphPad Prism 5 (GraphPad Software, La Jolla, USA) using a substrate inhibition model. Apparent kcat values are calculated from Vmax assuming 100% purity of the enzyme preparation. Weighted means (by standard error) of Km and IC50 values are calculated from at least three independent experiments. The Cheng-Prusoff equation for competitive inhibition (Cheng, Y. C.; Prusoff, W. H. Biochem Pharmacol 1973, 22, 3099-3108) is used to calculate dissociation constants (Ki).
(§8) Field performance of the HPPD enzyme, which is used as a herbicide tolerance trait may depend not only on its lack of sensitivity towards HPPD inhibiting herbicides but also on its activity. To assess the potential performance of a herbicide tolerance trait a tolerance index (TI) is calculated using the following formula: […]
(§9) Easy comparison and ranking of each trait is enabled by normalizing tolerance indexes on Arabidopsis wild-type HPPD.

SoHPPD F363I (short) = assay type: biochemical, Scenedesmus obliquus; conditions: normalized on Arabidopsis wild-type HPPD (SEQ ID NO:42)
Protocol: as §1, §2, §3, §4, §5, §6, §7, §8, §9

SoHPPD A318R, L350M = assay type: biochemical, Scenedesmus obliquus; conditions: normalized on Arabidopsis wild-type HPPD (SEQ ID NO:42)
Protocol: as §1, §2, §3, §4, §5, §6, §7, §8, §9

SoHPPD Q317M (short) = assay type: biochemical, Scenedesmus obliquus; conditions: normalized on Arabidopsis wild-type HPPD (SEQ ID NO:42)
Protocol: as §1, §2, §3, §4, §5, §6, §7, §8, §9

SoHPPD I455V = assay type: biochemical, Scenedesmus obliquus; conditions: normalized on Arabidopsis wild-type HPPD (SEQ ID NO:42)
Protocol: as §1, §2, §3, §4, §5, §6, §7, §8, §9

[1] = tested on: SoHPPD Q317H, A318G, E345Q; assay type: biochemical, Scenedesmus obliquus; conditions: normalized on Arabidopsis wild-type HPPD (SEQ ID NO:42)
Protocol: as §1, §2, §3, §4, §5, §6, §7, §8, §9

SoHPPD H306K (short) = assay type: biochemical, Scenedesmus obliquus; conditions: normalized on Arabidopsis wild-type HPPD (SEQ ID NO:42)
Protocol: as §1, §2, §3, §4, §5, §6, §7, §8, §9

[2] = tested on: SoHPPD E345Q, K326Q (short); assay type: biochemical, Scenedesmus obliquus; conditions: normalized on Arabidopsis wild-type HPPD (SEQ ID NO:42)
Protocol: as §1, §2, §3, §4, §5, §6, §7, §8, §9

[3] = tested on: SoHPPD R327G, E421D (short); assay type: biochemical, Scenedesmus obliquus; conditions: normalized on Arabidopsis wild-type HPPD (SEQ ID NO:42)
Protocol: as §1, §2, §3, §4, §5, §6, §7, §8, §9

[4] = tested on: SoHPPD V251A, H306R, Q317L, A318P, G321P, K331E, L350M (short); assay type: biochemical, Scenedesmus obliquus; conditions: normalized on Arabidopsis wild-type HPPD (SEQ ID NO:42)
Protocol: as §1, §2, §3, §4, §5, §6, §7, §8, §9

[5] = tested on: SoHPPD A318P, A319P (short); assay type: biochemical, Scenedesmus obliquus; conditions: normalized on Arabidopsis wild-type HPPD (SEQ ID NO:42)
Protocol: as §1, §2, §3, §4, §5, §6, §7, §8, §9

SoHPPD E345Q (short) = assay type: biochemical, Scenedesmus obliquus; conditions: normalized on Arabidopsis wild-type HPPD (SEQ ID NO:42)
Protocol: as §1, §2, §3, §4, §5, §6, §7, §8, §9

[6] = tested on: SoHPPD F39W, L367V, I375L (short); assay type: biochemical, Scenedesmus obliquus; conditions: normalized on Arabidopsis wild-type HPPD (SEQ ID NO:42)
Protocol: as §1, §2, §3, §4, §5, §6, §7, §8, §9

SoHPPD V251A (short) = assay type: biochemical, Scenedesmus obliquus; conditions: normalized on Arabidopsis wild-type HPPD (SEQ ID NO:42)
Protocol: as §1, §2, §3, §4, §5, §6, §7, §8, §9

[7] = tested on: SoHPPD A318R, L350M (short); assay type: biochemical, Scenedesmus obliquus; conditions: normalized on Arabidopsis wild-type HPPD (SEQ ID NO:42)
Protocol: as §1, §2, §3, §4, §5, §6, §7, §8, §9

[8] = tested on: SoHPPD L367V, I375L (short); assay type: biochemical, Scenedesmus obliquus; conditions: normalized on Arabidopsis wild-type HPPD (SEQ ID NO:42)
Protocol: as §1, §2, §3, §4, §5, §6, §7, §8, §9

SoHPPD E379Q (short) = assay type: biochemical, Scenedesmus obliquus; conditions: normalized on Arabidopsis wild-type HPPD (SEQ ID NO:42)
Protocol: as §1, §2, §3, §4, §5, §6, §7, §8, §9

SoHPPD Q317H (short) = assay type: biochemical, Scenedesmus obliquus; conditions: normalized on Arabidopsis wild-type HPPD (SEQ ID NO:42)
Protocol: as §1, §2, §3, §4, §5, §6, §7, §8, §9

[9] = tested on: SoHPPD E345Q, K326D (short); assay type: biochemical, Scenedesmus obliquus; conditions: normalized on Arabidopsis wild-type HPPD (SEQ ID NO:42)
Protocol: as §1, §2, §3, §4, §5, §6, §7, §8, §9

SoHPPD L367V, I375L = assay type: biochemical, Scenedesmus obliquus; conditions: normalized on Arabidopsis wild-type HPPD (SEQ ID NO:42)
Protocol: as §1, §2, §3, §4, §5, §6, §7, §8, §9

SoHPPD I419V (short) = assay type: biochemical, Scenedesmus obliquus; conditions: normalized on Arabidopsis wild-type HPPD (SEQ ID NO:42)
Protocol: as §1, §2, §3, §4, §5, §6, §7, §8, §9

[10] = tested on: SoHPPD K326E, E345Q (short); assay type: biochemical, Scenedesmus obliquus; conditions: normalized on Arabidopsis wild-type HPPD (SEQ ID NO:42)
Protocol: as §1, §2, §3, §4, §5, §6, §7, §8, §9

SoHPPD F363I = assay type: biochemical, Scenedesmus obliquus; conditions: normalized on Arabidopsis wild-type HPPD (SEQ ID NO:42)
Protocol: as §1, §2, §3, §4, §5, §6, §7, §8, §9

[11] = tested on: SoHPPD Q317H, A318G, E345Q (short); assay type: biochemical, Scenedesmus obliquus; conditions: normalized on Arabidopsis wild-type HPPD (SEQ ID NO:42)
Protocol: as §1, §2, §3, §4, §5, §6, §7, §8, §9

[12] = biological target: Scenedesmus HPPD (Seq ID: 2) (Tetradesmus obliquus, UniProt A0A383WMN4, N195D); assay type: biochemical; conditions: for TI (normalized tolerance index): normalized on Arabidopsis wild-type HPPD (SEQ ID NO:42)
Protocol: as §1, §2, §3, §4, §5, §6, §7, §8, §9

Sequence of Scenedesmus HPPD (Seq ID: 2) (A0A383WMN4 entry or part of it N195D): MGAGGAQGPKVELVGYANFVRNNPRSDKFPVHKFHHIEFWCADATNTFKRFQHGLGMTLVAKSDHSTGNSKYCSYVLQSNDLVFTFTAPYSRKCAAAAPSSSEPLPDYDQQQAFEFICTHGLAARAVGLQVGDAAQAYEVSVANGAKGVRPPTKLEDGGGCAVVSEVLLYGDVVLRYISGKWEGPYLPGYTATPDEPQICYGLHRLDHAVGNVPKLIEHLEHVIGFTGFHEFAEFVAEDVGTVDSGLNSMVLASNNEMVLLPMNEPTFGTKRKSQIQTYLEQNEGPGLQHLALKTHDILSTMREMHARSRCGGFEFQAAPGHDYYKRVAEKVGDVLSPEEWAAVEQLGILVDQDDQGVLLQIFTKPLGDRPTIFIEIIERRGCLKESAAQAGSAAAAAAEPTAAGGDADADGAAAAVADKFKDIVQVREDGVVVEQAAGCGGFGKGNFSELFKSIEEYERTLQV

Row | SMILES | TI (normalized tolerance index) (SoHPPD Q317H) | TI (normalized tolerance index) (SoHPPD F363I (short)) | TI (normalized tolerance index) (SoHPPD A318R, L350M) | TI (normalized tolerance index) (SoHPPD Q317M (short)) | TI (normalized tolerance index) (SoHPPD I455V) | TI (normalized tolerance index) [1] | TI (normalized tolerance index) (SoHPPD H306K (short)) | TI (normalized tolerance index) [2] | TI (normalized tolerance index) [3] | TI (normalized tolerance index) [4] | TI (normalized tolerance index) [5] | TI (normalized tolerance index) (SoHPPD E345Q (short)) | TI (normalized tolerance index) [6] | TI (normalized tolerance index) (SoHPPD V251A (short)) | TI (normalized tolerance index) [7] | TI (normalized tolerance index) [8] | TI (normalized tolerance index) (SoHPPD E379Q (short)) | TI (normalized tolerance index) (SoHPPD Q317H (short)) | TI (normalized tolerance index) [9] | TI (normalized tolerance index) (SoHPPD L367V, I375L) | further results
1 | CC(=O)N(C)c1c(Cl)ccc(C2=C(O)c3ncccc3C(C)(C)S2(=O)=O)c1Cl [Inhibitor 5, N-[2,6-dichloro-3-(8-hydroxy-5,5-dimethyl-6,6-dioxo-thiopyrano[4,3-b]pyridin-7-yl)phenyl]-N-methyl-acetamide] | 0.2 | 0.6 | 0.2 | 0.9 | 0.7 | 0.2 | 0.2 | 0.2 | 0.3 | 0.3 | 0.5 | 0.2 | 0.1 | 0.0 | 0.7 | 0.3 | 0.0 | 0.4 | 0.2 | 0.1 | TI (normalized tolerance index) (SoHPPD I419V (short)): 0.1; TI (normalized tolerance index) [10]: 0.0; TI (normalized tolerance index) (SoHPPD F363I): 0.4; TI (normalized tolerance index) [11]: 0.9; TI (normalized tolerance index) [12]: 0.0
2 | CS(=O)(=O)c1ccc(C(=O)C2C(=O)CCCC2=O)c([N+](=O)[O-])c1 [Inhibitor 2, 2-(4-methylsulfonyl-2-nitro-benzoyl)cyclohexane-1,3-dione] | 0.1 | 0.8 | 0.1 | 0.6 | 0.1 | 0.1 | 0.1 | 0.1 | 0.2 | 0.7 | 0.2 | 0.5 | 0.0 | 0.0 | 0.8 | 0.0 | 0.0 | 0.2 | 0.1 | 0.0 | TI (normalized tolerance index) (SoHPPD I419V (short)): 0.1; TI (normalized tolerance index) [10]: 0.0; TI (normalized tolerance index) (SoHPPD F363I): 0.1; TI (normalized tolerance index) [11]: 0.4; TI (normalized tolerance index) [12]: 0.5
3 | CCS(=O)(=O)c1cc(C(F)(F)F)ccc1C1=C(O)c2ncccc2C(C)(C)S1(=O)=O [Inhibitor 4, 7-[2-ethylsulfonyl-4-(trifluoromethyl)phenyl]-5,5-dimethyl-6,6-dioxo-thiopyrano[4,3-b]pyridin-8-ol] | 0.3 | 0.3 | 0.3 | 1.3 | 0.5 | 0.4 | 0.3 | 0.0 | 0.0 | 0.0 | 0.6 | 0.3 | 0.2 | 0.0 | 1.0 | 0.3 | 0.1 | 0.6 | 0.0 | 0.2 | TI (normalized tolerance index) (SoHPPD I419V (short)): 0.3; TI (normalized tolerance index) [10]: 0.0; TI (normalized tolerance index) (SoHPPD F363I): 0.1; TI (normalized tolerance index) [11]: 1.4; TI (normalized tolerance index) [12]: 0.1
4 | Cc1c(C(=O)c2cnn(C)c2O)ccc(S(C)(=O)=O)c1C1=NOCC1 [Inhibitor 1, [3-(4,5-dihydroisoxazol-3-yl)-2-methyl-4-methylsulfonyl-phenyl]-(5-hydroxy-1-methyl-pyrazol-4-yl)methanone] | – | – | – | – | – | – | – | – | – | – | – | – | – | – | – | – | – | – | – | – | Ki [12]: 11 nM
5 | CCSc1ccc(Cl)c(C(=O)Nc2nnnn2C)c1Cl [Inhibitor 8, 2,6-dichloro-3-ethylsulfanyl-N-(1-methyltetrazol-5-yl)benzamide] | 0.1 | not inhibited; also recorded: no inhi- | 0.2 | 0.8 | 0.3 | 0.1 | 0.3 | 0.3 | 0.5 | 0.2 | 0.8 | 0.5 | 0.5 | 0.1 | 1.2 | 0.7 | 0.4 | 0.5 | 0.3 | 0.0 | TI (normalized tolerance index) (SoHPPD I419V (short)): 0.3; TI (normalized tolerance index) [10]: 0.1; TI (normalized tolerance index) (SoHPPD F363I): no inhibition; also recorded: no inhi-; TI (normalized tolerance index) [11]: 1.0; TI (normalized tolerance index) [12]: 0.1
